# Laboratory results reported in patent US20250101023A1, “HETEROARYL DERIVATIVE AND USES THEREOF” (IUCF-HYU (INDUSTRY-UNIVERSITY COOPERATION FOUNDATION …, priority 2022, published 2025).
# Key:
# Assay in all cases: Kinome-wide profiling
# Assay type in all cases: biochemical
# Conditions in all cases: read-out: % Residual Activity (mean)
# [1] = biological target: FGFR2 (Homo sapiens (Human), UniProt P21802)
# [2] = biological target: CDK9/cyclin T2 (Homo sapiens (Human), UniProt P50750)
# [3] = biological target: c-MET (Homo sapiens (Human), UniProt P08581)
# [4] = biological target: LYN (Homo sapiens (Human), UniProt P07948)
# [5] = biological target: HPK1/MAP4K1 (Homo sapiens (Human), UniProt Q92918)
# [6] = biological target: PKN2/PRK2 (Homo sapiens (Human), UniProt Q16513)
# [7] = biological target: EPHA4 (Homo sapiens (Human), UniProt P54764)
# [8] = biological target: JAK2 (Homo sapiens (Human), UniProt O60674)
# [9] = biological target: MSK1/RPS6KA5 (Homo sapiens (Human), UniProt O75582)
# [10] = biological target: HIPK4 (Homo sapiens (Human), UniProt Q8NE63)
# [11] = biological target: EPHB4 (Homo sapiens (Human), UniProt P54760)
# [12] = biological target: VRK1 (Homo sapiens (Human), UniProt Q99986)
# [13] = biological target: CAMK1d (Homo sapiens (Human), UniProt Q8IU85)
# [14] = biological target: NEK6 (Homo sapiens (Human), UniProt Q9HC98)
# [15] = biological target: CDK6/cyclin D3 (Homo sapiens (Human), UniProt Q00534)
# [16] = biological target: ULK2 (Homo sapiens (Human), UniProt Q8IYT8)
# [17] = biological target: CDC7/DBF4 (Homo sapiens (Human), UniProt O00311)
# [18] = biological target: CDK3/cyclin E2 (Homo sapiens (Human), UniProt Q00526)
# [19] = biological target: MAPKAPK5/PRAK (Homo sapiens (Human), UniProt Q8IW41)
# [20] = biological target: PDGFRa (Homo sapiens (Human), UniProt P16234)
# [21] = biological target: EPHA5 (Homo sapiens (Human), UniProt P54756)
# [22] = biological target: BRSK2 (Homo sapiens (Human), UniProt Q8IWQ3)
# [23] = biological target: TLK2 (Homo sapiens (Human), UniProt Q86UE8)
# [24] = biological target: ASK1/MAP3K5 (Homo sapiens (Human), UniProt Q99683)
# [25] = biological target: FGFR3 (Homo sapiens (Human), UniProt P22607)
# [26] = biological target: MARK4 (Homo sapiens (Human), UniProt Q96L34)
# [27] = biological target: CK2a (Homo sapiens (Human), UniProt P68400)
# [28] = biological target: PKCb1 (Homo sapiens (Human), UniProt P05771)
# [29] = biological target: MLCK2/MYLK2 (Homo sapiens (Human), UniProt Q9H1R3)
# [30] = biological target: CDK2/cyclin A1 (Homo sapiens (Human), UniProt P24941)
# [31] = biological target: SNRK (Homo sapiens (Human), UniProt Q9NRH2)
# [32] = biological target: CDK6/cyclin D2 (Homo sapiens (Human), UniProt Q00534)
# [33] = biological target: EPHB1 (Homo sapiens (Human), UniProt P54762)
# [34] = biological target: KHS/MAP4K5 (Homo sapiens (Human), UniProt Q9Y4K4)
# [35] = biological target: CAMK2b (Homo sapiens (Human), UniProt Q13554)
# [36] = biological target: SSTK/TSSK6 (Homo sapiens (Human), UniProt Q9BXA6)
# [37] = biological target: ERK7/MAPK15 (Homo sapiens (Human), UniProt Q8TD08)
# [38] = biological target: LATS1 (Homo sapiens (Human), UniProt O95835)
# [39] = biological target: MSSK1/STK23 (Homo sapiens (Human), UniProt Q9UPE1)
# Sequence of HIPK4 (Q8NE63 whole entry): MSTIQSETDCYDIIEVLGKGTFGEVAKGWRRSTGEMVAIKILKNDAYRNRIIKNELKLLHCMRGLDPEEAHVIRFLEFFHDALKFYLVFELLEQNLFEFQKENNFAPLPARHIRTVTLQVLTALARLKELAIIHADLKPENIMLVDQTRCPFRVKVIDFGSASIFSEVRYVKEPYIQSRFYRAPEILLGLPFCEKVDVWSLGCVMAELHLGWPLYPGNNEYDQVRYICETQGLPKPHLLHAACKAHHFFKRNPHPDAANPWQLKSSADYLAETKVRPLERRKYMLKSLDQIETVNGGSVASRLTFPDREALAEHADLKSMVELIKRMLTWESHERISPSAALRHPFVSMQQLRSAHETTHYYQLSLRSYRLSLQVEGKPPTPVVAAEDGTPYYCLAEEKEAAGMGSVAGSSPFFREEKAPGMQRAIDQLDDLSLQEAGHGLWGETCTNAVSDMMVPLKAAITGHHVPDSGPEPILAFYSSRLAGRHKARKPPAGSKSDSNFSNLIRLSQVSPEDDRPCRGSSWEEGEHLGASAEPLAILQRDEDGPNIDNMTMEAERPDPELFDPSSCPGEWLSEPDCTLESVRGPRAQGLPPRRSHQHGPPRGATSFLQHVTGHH
# Sequence of EPHA4 (P54764 20-986): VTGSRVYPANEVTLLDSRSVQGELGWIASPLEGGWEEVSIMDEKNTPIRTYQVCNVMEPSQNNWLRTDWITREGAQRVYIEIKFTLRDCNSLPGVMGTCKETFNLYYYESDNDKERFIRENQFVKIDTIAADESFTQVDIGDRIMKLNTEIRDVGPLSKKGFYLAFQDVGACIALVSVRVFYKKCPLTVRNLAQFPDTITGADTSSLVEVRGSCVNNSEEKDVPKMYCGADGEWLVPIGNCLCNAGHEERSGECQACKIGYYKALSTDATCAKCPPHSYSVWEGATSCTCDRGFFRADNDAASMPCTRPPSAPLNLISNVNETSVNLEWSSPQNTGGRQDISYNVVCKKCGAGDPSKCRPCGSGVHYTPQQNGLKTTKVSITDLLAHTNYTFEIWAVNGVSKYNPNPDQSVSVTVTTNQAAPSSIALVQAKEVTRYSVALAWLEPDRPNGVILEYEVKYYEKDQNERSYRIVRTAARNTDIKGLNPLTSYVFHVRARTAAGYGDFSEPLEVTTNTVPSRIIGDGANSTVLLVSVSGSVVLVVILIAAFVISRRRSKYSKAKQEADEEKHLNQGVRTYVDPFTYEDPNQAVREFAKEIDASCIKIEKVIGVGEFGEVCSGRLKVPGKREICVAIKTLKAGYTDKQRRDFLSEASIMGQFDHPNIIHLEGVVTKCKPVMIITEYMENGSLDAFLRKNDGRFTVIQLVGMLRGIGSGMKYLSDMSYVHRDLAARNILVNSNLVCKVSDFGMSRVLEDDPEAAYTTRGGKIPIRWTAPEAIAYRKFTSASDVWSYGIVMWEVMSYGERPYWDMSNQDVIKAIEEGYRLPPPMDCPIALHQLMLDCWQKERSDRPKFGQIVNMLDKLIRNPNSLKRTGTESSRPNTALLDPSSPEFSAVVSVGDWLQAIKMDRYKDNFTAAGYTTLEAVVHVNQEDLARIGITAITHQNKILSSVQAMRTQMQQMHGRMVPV
# Sequence of FGFR2 (P21802 22-821): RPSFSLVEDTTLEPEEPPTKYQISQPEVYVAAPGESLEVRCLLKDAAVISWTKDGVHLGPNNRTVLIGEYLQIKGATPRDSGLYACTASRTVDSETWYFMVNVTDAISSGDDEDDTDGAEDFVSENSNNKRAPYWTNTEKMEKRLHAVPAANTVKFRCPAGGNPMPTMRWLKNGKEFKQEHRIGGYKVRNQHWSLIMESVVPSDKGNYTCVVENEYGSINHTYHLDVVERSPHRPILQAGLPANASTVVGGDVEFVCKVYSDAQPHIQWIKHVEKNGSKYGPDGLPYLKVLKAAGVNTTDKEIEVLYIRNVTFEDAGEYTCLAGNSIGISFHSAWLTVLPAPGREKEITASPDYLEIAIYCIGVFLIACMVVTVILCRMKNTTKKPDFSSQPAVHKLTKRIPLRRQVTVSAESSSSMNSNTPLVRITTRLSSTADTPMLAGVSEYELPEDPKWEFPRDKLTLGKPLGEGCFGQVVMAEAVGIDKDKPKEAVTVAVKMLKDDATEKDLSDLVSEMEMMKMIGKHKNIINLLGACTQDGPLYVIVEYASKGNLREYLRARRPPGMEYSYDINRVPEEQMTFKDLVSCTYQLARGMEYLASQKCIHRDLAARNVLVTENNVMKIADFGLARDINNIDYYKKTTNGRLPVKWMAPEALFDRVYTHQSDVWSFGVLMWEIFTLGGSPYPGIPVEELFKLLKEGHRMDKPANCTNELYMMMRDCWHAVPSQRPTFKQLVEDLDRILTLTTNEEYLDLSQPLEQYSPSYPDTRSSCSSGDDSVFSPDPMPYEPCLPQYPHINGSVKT
# Sequence of CDC7/DBF4 (O00311 whole entry): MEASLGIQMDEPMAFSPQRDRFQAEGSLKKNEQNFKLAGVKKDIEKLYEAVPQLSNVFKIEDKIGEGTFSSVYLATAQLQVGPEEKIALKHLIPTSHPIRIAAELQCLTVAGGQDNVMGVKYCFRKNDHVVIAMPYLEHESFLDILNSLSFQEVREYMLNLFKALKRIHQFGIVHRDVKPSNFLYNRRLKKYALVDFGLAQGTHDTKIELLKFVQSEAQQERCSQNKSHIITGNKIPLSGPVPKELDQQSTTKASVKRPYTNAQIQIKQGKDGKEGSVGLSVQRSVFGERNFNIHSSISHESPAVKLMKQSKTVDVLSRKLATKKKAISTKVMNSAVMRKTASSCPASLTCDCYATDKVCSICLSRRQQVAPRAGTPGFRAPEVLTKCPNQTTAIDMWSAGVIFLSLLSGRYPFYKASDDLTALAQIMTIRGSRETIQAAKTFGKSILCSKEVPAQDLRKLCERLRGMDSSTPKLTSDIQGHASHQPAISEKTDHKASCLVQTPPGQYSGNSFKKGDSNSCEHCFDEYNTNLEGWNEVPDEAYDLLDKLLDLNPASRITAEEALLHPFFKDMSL
# Sequence of CDC7/DBF4 (Q9UBU7 whole entry partner): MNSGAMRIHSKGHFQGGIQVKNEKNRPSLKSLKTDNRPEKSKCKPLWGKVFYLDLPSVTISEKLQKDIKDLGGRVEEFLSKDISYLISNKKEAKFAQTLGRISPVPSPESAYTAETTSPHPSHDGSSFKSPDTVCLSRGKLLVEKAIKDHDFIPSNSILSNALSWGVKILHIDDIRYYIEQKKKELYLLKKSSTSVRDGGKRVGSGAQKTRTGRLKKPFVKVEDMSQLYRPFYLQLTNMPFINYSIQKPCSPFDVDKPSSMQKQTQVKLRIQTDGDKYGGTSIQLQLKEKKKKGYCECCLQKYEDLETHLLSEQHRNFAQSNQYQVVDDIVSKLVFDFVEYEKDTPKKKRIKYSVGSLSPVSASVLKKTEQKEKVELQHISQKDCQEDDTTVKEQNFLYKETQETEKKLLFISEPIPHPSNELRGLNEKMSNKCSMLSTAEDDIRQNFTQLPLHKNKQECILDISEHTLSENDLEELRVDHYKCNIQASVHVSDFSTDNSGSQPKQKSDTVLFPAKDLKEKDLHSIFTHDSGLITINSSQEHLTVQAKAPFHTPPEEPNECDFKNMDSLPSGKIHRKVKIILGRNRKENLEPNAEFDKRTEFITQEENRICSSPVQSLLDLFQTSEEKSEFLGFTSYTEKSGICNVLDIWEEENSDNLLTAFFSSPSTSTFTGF
# Sequence of SNRK (Q9NRH2 whole entry): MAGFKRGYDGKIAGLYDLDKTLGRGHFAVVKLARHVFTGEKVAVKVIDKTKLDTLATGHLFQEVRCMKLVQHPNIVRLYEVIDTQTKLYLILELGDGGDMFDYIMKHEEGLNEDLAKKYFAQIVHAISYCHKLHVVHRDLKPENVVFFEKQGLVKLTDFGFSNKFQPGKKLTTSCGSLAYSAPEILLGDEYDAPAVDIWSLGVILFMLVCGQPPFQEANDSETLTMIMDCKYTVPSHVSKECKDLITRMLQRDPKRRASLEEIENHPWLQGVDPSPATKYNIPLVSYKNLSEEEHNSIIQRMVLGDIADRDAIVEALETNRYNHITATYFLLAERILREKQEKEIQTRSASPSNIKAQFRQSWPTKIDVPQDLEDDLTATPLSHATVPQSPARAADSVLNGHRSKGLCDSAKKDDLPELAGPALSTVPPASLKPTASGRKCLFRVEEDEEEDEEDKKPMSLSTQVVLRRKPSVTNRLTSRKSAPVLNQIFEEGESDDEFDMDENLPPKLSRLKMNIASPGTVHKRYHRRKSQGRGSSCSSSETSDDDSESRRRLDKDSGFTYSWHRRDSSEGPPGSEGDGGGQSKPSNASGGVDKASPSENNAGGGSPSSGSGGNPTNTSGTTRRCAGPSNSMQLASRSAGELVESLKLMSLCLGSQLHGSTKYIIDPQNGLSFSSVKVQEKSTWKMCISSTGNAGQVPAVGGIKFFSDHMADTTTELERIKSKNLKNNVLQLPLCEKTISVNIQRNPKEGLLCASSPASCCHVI
# Sequence of MLCK2/MYLK2 (Q9H1R3 whole entry): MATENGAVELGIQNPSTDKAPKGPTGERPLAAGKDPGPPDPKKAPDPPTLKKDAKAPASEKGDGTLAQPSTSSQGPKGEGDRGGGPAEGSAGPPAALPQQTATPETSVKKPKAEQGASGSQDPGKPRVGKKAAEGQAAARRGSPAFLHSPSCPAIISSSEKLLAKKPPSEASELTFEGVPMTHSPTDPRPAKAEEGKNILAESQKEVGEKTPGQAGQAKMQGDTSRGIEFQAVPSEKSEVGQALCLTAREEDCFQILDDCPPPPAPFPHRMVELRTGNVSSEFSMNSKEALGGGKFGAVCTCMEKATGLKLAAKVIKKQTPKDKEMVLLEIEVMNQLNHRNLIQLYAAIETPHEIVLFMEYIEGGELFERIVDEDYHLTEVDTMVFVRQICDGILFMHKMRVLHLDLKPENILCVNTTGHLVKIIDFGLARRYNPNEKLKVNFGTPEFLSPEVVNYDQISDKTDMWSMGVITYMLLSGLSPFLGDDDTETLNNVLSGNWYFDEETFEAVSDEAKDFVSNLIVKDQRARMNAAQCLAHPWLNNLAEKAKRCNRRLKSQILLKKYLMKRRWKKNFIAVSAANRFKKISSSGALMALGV
compound,measurement,setting,value
"CCn1cnc2c(NCc3ccc(-c4ccccn4)nc3)nc(-c3ccc(N)nc3)nc21 [Example 53, N-([2,2′-bipyridin]-5-ylmethyl)-2-(6-aminopyridin-3-yl)-9-ethyl-9H-purin-6-amine]",remaining activity at 10 µM,[1],33.7%
same,remaining activity at 10 µM,[2],1.95%
same,remaining activity at 10 µM,[3],96.4%
same,remaining activity at 10 µM,[4],65.7%
same,remaining activity at 10 µM,[5],30.2%
same,remaining activity at 10 µM,[6],85.8%
same,remaining activity at 10 µM,[7],3.61%
same,remaining activity at 10 µM,[8],87%
same,remaining activity at 10 µM,[9],80.5%
same,remaining activity at 10 µM,[10],43.9%
same,remaining activity at 10 µM,[11],23.2%
same,remaining activity at 10 µM,[12],87.3%
same,remaining activity at 10 µM,[13],58%
same,remaining activity at 10 µM,[14],92.1%
same,remaining activity at 10 µM,[15],12.9%
same,remaining activity at 10 µM,[16],87.3%
same,remaining activity at 10 µM,[17],98.2%
same,remaining activity at 10 µM,[18],2.63%
same,remaining activity at 10 µM,[19],103%
same,remaining activity at 10 µM,[20],52.8%
same,remaining activity at 10 µM,[21],5.86%
same,remaining activity at 10 µM,[22],97.5%
same,remaining activity at 10 µM,[23],72.2%
same,remaining activity at 10 µM,[24],18.4%
same,remaining activity at 10 µM,[25],30.6%
same,remaining activity at 10 µM,[26],66.9%
same,remaining activity at 10 µM,[27],84.2%
same,remaining activity at 10 µM,[28],89.9%
same,remaining activity at 10 µM,[29],60%
same,remaining activity at 10 µM,[30],0.16%
same,remaining activity at 10 µM,[31],93%
same,remaining activity at 10 µM,[32],51.5%
same,remaining activity at 10 µM,[33],13.6%
same,remaining activity at 10 µM,[34],88.3%
same,remaining activity at 10 µM,[35],65.2%
same,remaining activity at 10 µM,[36],86.9%
same,remaining activity at 10 µM,[37],13.5%
same,remaining activity at 10 µM,[38],85%
same,remaining activity at 10 µM,[39],82.8%
